Results on 11 compounds are retold here after patent US4914104A, “Imidazo [1,5-a]pyrimidine derivatives and process for their preparation” (Kyorin Pharmaceutical Co., Ltd., priority 1984, dated 1990).

What all share (assay): Antifungal activity, standard agar dilution streak method
Format in all cases: cell-based
(In agar dilution, organisms are placed on agar that contains the substance at set levels.)

The subject of test [1] is Aspergillus fumigatus MTU-06002. Particulars: MTU06002, read-out: Minimum inhibitory concentration. The method, then:
(§1) The antifungal activity of the compound of the present invention was assayed by the standard agar dilution streak method against fungi.

Test [2] deals with Candida albicans 3147. The conditions noted are these: read-out: Minimum inhibitory concentration. The method, then:
as §1

Test [3] deals with Candida albicans IFO-1388. Particulars: IFO1388, read-out: Minimum inhibitory concentration. As to the method:
as §1

In test [4] the test system is Candida albicans IFO-1594. Particulars: IFO1594, read-out: Minimum inhibitory concentration. The method, then: as §1
Test [5] has as its system Candida albicans KYF-602. Particulars: KYF602, read-out: Minimum inhibitory concentration. The method, then: as §1
Test [6] has as its system Candida albicans MTU-12124. Particulars: MTU12124, read-out: Minimum inhibitory concentration. As to the method: as §1
Test [7] has as its system Candida stellatidea IFO-1398. Particulars: IFO1398, read-out: Minimum inhibitory concentration. As to the method:
as §1

The test system of test [8] is Microsporum canis 200100. Particulars: read-out: Minimum inhibitory concentration. As to the method:
as §1

Test [9] concerns Trichophyton mentagrophytes MTU-19003. Particulars: MTU19003, read-out: Minimum inhibitory concentration. The method, then:
as §1

The test system of test [10] is Trichophyton mentagrophytes MTU-19005. Particulars: MTU19005, read-out: Minimum inhibitory concentration. As to the method:
as §1

Converted amounts (≈) assume the structure as drawn.

In the case of `Clc1cc(Cl)n2c(-c3cccs3)ncc2n1` [Exp. 1, 2,4-dichloro-6-(2-thienyl)imidazo[1,5-a]pyrimidine], the MIC in test [1] was determined as 6.25 µg/mL (≈ 23.1 µM); in test [2], 3.13 µg/mL (≈ 11.6 µM); in test [3], 1.56 µg/mL (≈ 5.77 µM); in [4] it was 1.56 µg/mL (≈ 5.77 µM); in test [5] it was 6.25 µg/mL (≈ 23.1 µM); in test [6] it was 6.25 µg/mL (≈ 23.1 µM). In addition, the MIC in test [7], in [8], in test [9] and in test [10] was 1.56 µg/mL (≈ 5.77 µM) in each case.

For `Clc1cc(Cl)n2c(-c3ccco3)ncc2n1` [Exp. 3], the MIC in test [1] amounted to 12.5 µg/mL (≈ 49.2 µM); in test [2], 3.13 µg/mL (≈ 12.3 µM); in test [3] it was 3.13 µg/mL (≈ 12.3 µM); in test [4] it was 3.13 µg/mL (≈ 12.3 µM); in [5], 12.5 µg/mL (≈ 49.2 µM); in test [6], 6.25 µg/mL (≈ 24.6 µM). The MIC in [7] worked out at 3.13 µg/mL (≈ 12.3 µM); in test [8], 1.56 µg/mL (≈ 6.14 µM); in test [9], 3.13 µg/mL (≈ 12.3 µM); in test [10], 3.13 µg/mL (≈ 12.3 µM).

As to `Clc1cc(Cl)n2c(Cc3cccs3)ncc2n1` [Exp. 4], the MIC in [1] came out at 12.5 µg/mL (≈ 44 µM); in test [2], 3.13 µg/mL (≈ 11 µM); in test [3], 6.25 µg/mL (≈ 22 µM); in [4], 3.13 µg/mL (≈ 11 µM); in test [5] it was 6.25 µg/mL (≈ 22 µM); in [6], 6.25 µg/mL (≈ 22 µM). Moreover, the MIC in test [7] was 3.13 µg/mL (≈ 11 µM); in test [8], 1.56 µg/mL (≈ 5.49 µM); in [9] it was 1.56 µg/mL (≈ 5.49 µM); in test [10], 1.56 µg/mL (≈ 5.49 µM).

Take `Clc1cc(Cl)n2c(-c3ccsc3)ncc2n1` [Exp. 5]: the MIC in test [1] is 3.13 µg/mL (≈ 11.6 µM); in [2] it was 3.13 µg/mL (≈ 11.6 µM); in test [3], 6.25 µg/mL (≈ 23.1 µM); in [4] it was 3.13 µg/mL (≈ 11.6 µM); in [5] it was 12.5 µg/mL (≈ 46.3 µM); in [6] it was 6.25 µg/mL (≈ 23.1 µM). The MIC in test [7] came to 6.25 µg/mL (≈ 23.1 µM); in test [8], 1.56 µg/mL (≈ 5.77 µM); in test [9], 1.56 µg/mL (≈ 5.77 µM); in test [10], 0.78 µg/mL (≈ 2.89 µM).

Take `Clc1cc(Cl)n2c(-c3ccc(Br)s3)ncc2n1` [Exp. 6]: the MIC in test [1] turned out to be 3.13 µg/mL (≈ 8.97 µM); in test [2] it was 0.78 µg/mL (≈ 2.23 µM); in test [3] it was 0.78 µg/mL (≈ 2.23 µM); in test [4], 3.13 µg/mL (≈ 8.97 µM); in test [5], 3.13 µg/mL (≈ 8.97 µM); in [6] it was 0.78 µg/mL (≈ 2.23 µM). The MIC in [7] was 0.78 µg/mL (≈ 2.23 µM); in test [8], 0.78 µg/mL (≈ 2.23 µM); in test [9] it was 1.56 µg/mL (≈ 4.47 µM); in test [10], 0.78 µg/mL (≈ 2.23 µM).

For `Clc1cc(Cl)n2c(-c3ccc(Cl)s3)ncc2n1` [Exp. 7], the MIC was determined as 0.2 µg/mL (≈ 0.657 µM) in test [2]; 0.78 µg/mL (≈ 2.56 µM) in test [3]; 0.2 µg/mL (≈ 0.657 µM) in test [4]; 0.39 µg/mL (≈ 1.28 µM) in [5]; 1.56 µg/mL (≈ 5.12 µM) in test [6]; 0.78 µg/mL (≈ 2.56 µM) in test [7]. Further, the MIC in [9] and in [10] was 0.78 µg/mL (≈ 2.56 µM) throughout.

For `Cc1ccc(-c2ncc3nc(Cl)cc(Cl)n23)s1` [Exp. 8], the MIC in test [2] amounted to 1.56 µg/mL (≈ 5.49 µM); in [3], 6.25 µg/mL (≈ 22 µM); in test [4], 6.25 µg/mL (≈ 22 µM); in test [5], 6.25 µg/mL (≈ 22 µM); in test [6] it was 3.13 µg/mL (≈ 11 µM); in test [7], 1.56 µg/mL (≈ 5.49 µM). Further, the MIC in test [9] and in test [10] was 1.56 µg/mL (≈ 5.49 µM) throughout.

For the compound `Clc1cc(Cl)n2c(-c3ccccc3)nc(Cl)c2n1` [Exp. 13, 2,4,8-trichloro-6-phenylimidazo[1,5-a]pyrimidine], the MIC in test [1] is 6.25 µg/mL (≈ 20.9 µM); in [2], 3.13 µg/mL (≈ 10.5 µM); in test [3], 3.13 µg/mL (≈ 10.5 µM); in test [4] it was 3.13 µg/mL (≈ 10.5 µM); in test [5], 3.13 µg/mL (≈ 10.5 µM); in [6], 12.5 µg/mL (≈ 41.9 µM). For the same compound, the MIC in [7] turned out to be 6.25 µg/mL (≈ 20.9 µM); in test [8], 0.78 µg/mL (≈ 2.61 µM); in [9] it was 0.78 µg/mL (≈ 2.61 µM); in test [10] it was 0.78 µg/mL (≈ 2.61 µM).

Regarding `Clc1cc(Cl)n2c(-c3ccc(Br)cc3)nc(Cl)c2n1` [Exp. 17], the MIC was 1.56 µg/mL (≈ 4.13 µM) in test [2]; 0.78 µg/mL (≈ 2.07 µM) in [3]; 1.56 µg/mL (≈ 4.13 µM) in test [4]; 6.25 µg/mL (≈ 16.6 µM) in test [5]; 3.13 µg/mL (≈ 8.29 µM) in test [6]; 0.39 µg/mL (≈ 1.03 µM) in [7]. Besides, the MIC in test [9] and in [10] was 3.13 µg/mL (≈ 8.29 µM) throughout.

On to `Clc1ccc(Cc2nc(Cl)c3nc(Cl)cc(Cl)n23)cc1` [compound 18], for which the MIC in [2] is 1.56 µg/mL (≈ 4.5 µM); in [3], 0.2 µg/mL (≈ 0.576 µM); in test [4], 3.13 µg/mL (≈ 9.02 µM); in test [5], 25 µg/mL (≈ 72 µM); in test [6] it was 6.25 µg/mL (≈ 18 µM); in [7] it was 0.78 µg/mL (≈ 2.25 µM). The MIC amounted to 3.13 µg/mL (≈ 9.02 µM) in [9] and 1.56 µg/mL (≈ 4.5 µM) in test [10].

Regarding `Clc1cc(Cl)n2c(C3CCCCC3)nc(Cl)c2n1` [compound 19], the MIC turned out to be 0.78 µg/mL (≈ 2.56 µM) in test [2]; 0.2 µg/mL (≈ 0.657 µM) in test [3]; 1.56 µg/mL (≈ 5.12 µM) in test [4]; 1.56 µg/mL (≈ 5.12 µM) in test [5]; 1.56 µg/mL (≈ 5.12 µM) in test [6]; 1.56 µg/mL (≈ 5.12 µM) in test [7]. For the same compound, the MIC was found to be 3.13 µg/mL (≈ 10.3 µM) in [9] and 1.56 µg/mL (≈ 5.12 µM) in test [10].
